Data taken from patent publication US9200269B2, “β-glucuronidase inhibitor” (priority 2007, dated 2015).
Where two headings read alike, the source gives them in different places.

Molecular target: T1, β-glucuronidase Type VII-A derived from Escherichia coli (Escherichia coli, UniProt P05804)
T1 construct: purchased Sigma-Aldrich Corporation
Assay: Inhibition of β-glucuronidase activity (PNPG substrate, absorbance at 400 nm)
Format: biochemical
Settings: for Inhibition rate (%) Concentration 0.001%: 0.001 wt % in reaction solution
Description: 100 μL of a 2 mM PNPG aqueous solution, 40 μL of a 0.5 M phosphate buffer (pH 6.8), 38 μL of ion exchanged water and 2 μL of a 10 or 1 wt % dipropylene glycol (DPG) solution of various compounds or plant extracts were mixed in a bottle γ-ray sterilized in advance, and subsequently 20 μL of a β-glucuronidase aqueous solution adjusted to 16 units/mL was added, in order to allow the enzyme to react in a thermostat bath at 37° C. for 2 hours. Further, in the case of some of compounds, in addition to the above steps, the same experiment was performed using a 0.1 wt % DPG solution as well. As a result, the concentrations of the test compounds and plant extracts in the reaction solution were adjusted to 0.1, 0.01 and 0.001 wt %, respectively. Further, a product prepared by adding DPG in place of the above-mentioned compounds and plant extracts was used as a control, and a product prepared by adding ion exchanged water in place of an enzyme solution was used as a blank for each sample and control, and the respective products were allowed to react for 2 hours in the same manner. It should be noted that the plant extract sample was used as a solvent extract.
The above-mentioned reaction solution was diluted with a 0.2 M glycine buffer (pH 10.4) and measured for its absorbance at a wavelength of 400 nm. The relative activity inhibition rate of a β-glucuronidase was determined by using the obtained measurement value in accordance with the following equation. Absorbance change of control=Absorbance of control−Absorbance of blank for each control Absorbance change of sample=Absorbance of sample−Absorbance of blank for each sample Activity inhibition rate (%)=[(Absorbance change of control−Absorbance change of sample)/Absorbance change of control]×100

[1] = 0.01 wt % in reaction solution, 1.6 units/mL enzyme, 37° C., 2 hours, pH 6.8, read-out: Inhibition rate (%) Concentration 0.01%
[2] = 0.1 wt % in reaction solution, 1.6 units/mL enzyme, 37° C., 2 hours, pH 6.8, read-out: Inhibition rate (%) Concentration 0.1%
[3] = 0.01 wt % in reaction solution, 1.6 units/mL enzyme, 37° C., 2 hours, pH 6.8
[4] = 0.1 wt % in reaction solution, 1.6 units/mL enzyme, 37° C., 2 hours, pH 6.8
[5] = 2 h, pH 6.8, read-out: Inhibition rate (%) Concentration 0.01%
[6] = 2 h, pH 6.8, read-out: Inhibition rate (%) Concentration 0.1%
[7] = 1.6 units/mL enzyme, 37° C., 2 hours, pH 6.8

T1 sequence (P05804 whole entry): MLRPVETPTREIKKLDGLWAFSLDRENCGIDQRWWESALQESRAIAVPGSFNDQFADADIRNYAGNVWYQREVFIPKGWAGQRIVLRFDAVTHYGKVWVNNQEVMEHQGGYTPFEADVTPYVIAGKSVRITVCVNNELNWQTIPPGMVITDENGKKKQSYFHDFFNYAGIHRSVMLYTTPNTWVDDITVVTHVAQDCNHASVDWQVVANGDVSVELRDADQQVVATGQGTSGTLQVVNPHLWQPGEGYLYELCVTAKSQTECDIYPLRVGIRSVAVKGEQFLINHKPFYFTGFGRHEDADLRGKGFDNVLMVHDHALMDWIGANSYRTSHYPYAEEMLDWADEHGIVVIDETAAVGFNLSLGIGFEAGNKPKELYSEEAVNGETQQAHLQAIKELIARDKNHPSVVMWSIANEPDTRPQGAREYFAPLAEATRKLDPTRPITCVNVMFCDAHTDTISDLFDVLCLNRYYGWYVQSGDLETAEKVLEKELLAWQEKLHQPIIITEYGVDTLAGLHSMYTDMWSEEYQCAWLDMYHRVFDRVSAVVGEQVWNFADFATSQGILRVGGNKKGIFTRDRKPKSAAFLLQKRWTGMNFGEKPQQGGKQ

Compound	inhibition at 0.01 wt % [1] [%]	inhibition at 0.1 wt % [2] [%]	Inhibition rate (%) Concentration 0.01% [3] [%]	Inhibition rate (%) Concentration 0.1% [4] [%]	further results
O=CCc1ccccc1 [Phenylacetaldehyde, phenylacetaldehyde]	31.9	72.2			
C=CC(C)(O)CCC=C(C)C (stereo not drawn) [Linalool, linalool]	31.7	91			
CC1=CCCC2(C)OC2CCC(C)=CCC1 (stereo not drawn) [Cedroxide, 4,8,12-trimethyl-13-oxabicyclo-[10.1.0]trideca-4,8-diene]	40.1	82.6			
CC(=O)OC(C)(C)C1CC=C(C)CC1 (stereo not drawn) [Terpinyl acetate, terpinyl acetate]			65.5	94.7	
COC1CCCCCCCCCCC1 [Palisandin, 1-methoxycyclododecane]	53.3	85			
CC(C)=CCCC(C)CCO (stereo not drawn) [Citronellol, citronellol]	47.4	76.2			
O=CCCC=C1CC2CC1C1CCCC21 (stereo not drawn) [Dupical, 4-(tricyclo[5.2.1.0^2,6]decylidene-8)butenal]			65.5	73.5	
CC(C)CCOCCc1ccccc1 [Phenylethyl isoamyl ether, phenylethyl isoamyl ether]	60.8	88.8			
CC(=O)/C=C/C1C(C)=CCCC1(C)C (stereo not drawn) [α-Ionone, α-ionone]			43.3	91.8	
CCOc1cc(C=O)ccc1O [Ethylvanillin, ethylvanillin]					inhibition at 0.01 wt % [5]: 38.5%; inhibition at 0.1 wt % [6]: 78.5%
O=CCCc1ccccc1 [3-Phenylpropanal, 3-phenylpropanal]	23.3	81.7			
CC(C)c1ccc(C=O)cc1 [Cuminaldehyde, cuminaldehyde]	37.8	97.1			
C=CCc1ccc(OC)cc1 [Estragole, estragole]	94.6	99.4			
CC(C)=CCC/C(C)=C\CO [Nerol, nerol]	44	85.7			
CC(C)(O)CCCC1=CCC(C=O)CC1 (stereo not drawn) [Lyral, 4-(4-hydroxy-4-methylpentyl)-3-cyclohexene-1-carboxyaldehyde]	51.6	94.4			
O=C/C=C/c1ccccc1 [Cinnamic aldehyde, cinnamic aldehyde]					Inhibition rate (%) Concentration 0.001% [7]: 46.4%; inhibition at 0.01 wt % [5]: 96.8%; inhibition at 0.1 wt % [6]: 100%
CC/C=C\CCOC(=O)c1ccccc1 [cis-3-Hexenyl benzoate, cis-3-hexenyl benzoate]	45.1	80.6			
O=C1CCCCCCCC=CCCCCCCC1 [9-Cycloheptadecen-1-one, 9-cycloheptadecen-1-one]	96.3	100			Inhibition rate (%) Concentration 0.001% [7]: 95.8%
O=C1CCCCC/C=C\CCCCCCCCO1 [7-Cyclohexadecenolide, 7-cyclohexadecenolide]			98.5	99.6	Inhibition rate (%) Concentration 0.001% [7]: 88.1%
C/C=C/C(=O)C1=C(C)CCCC1(C)C [β-Damascone, β-damascone]			39.5	77.3	
COc1ccc(C)cc1 [p-Cresyl methyl ether, p-cresyl methyl ether]	24	85.9			
C/C=C\C(=O)C1C(C)=CCCC1(C)C (stereo not drawn) [α-Damascone, α-damascone]			42.6	89.9	
CCCCCCCCCC(C)C=O (stereo not drawn) [2-Methylundecanal, 2-methylundecanal]	57	62.6			
CC(C)=CCCC1=CCC(C=O)CC1 (stereo not drawn) [Myrac aldehyde, 4-(4-methyl-3-pentenyl)-3-cyclohexene-1-carboxyaldehyde]			49.7	63.7	
CC(CC=O)CCCC(C)(C)O (stereo not drawn) [Hydroxycitronellal, hydroxycitronellal]	24.2	85.3			

Compound	inhibition at 0.01 wt % [1] [%]	inhibition at 0.1 wt % [2] [%]	Inhibition rate (%) Concentration 0.01% [3] [%]	Inhibition rate (%) Concentration 0.1% [4] [%]	further results
C=CCc1ccc(O)c(OC)c1 [Eugenol, eugenol]	36.8	93.2			
CC1=CC(C)C(C=O)CC1 (stereo not drawn) [Ligustral, dimethyltetrahydrobenzaldehyde]			30.1	76.2	
CC(C=O)Cc1ccc(C(C)C)cc1 (stereo not drawn) [Cyclamen aldehyde, cyclamen aldehyde]			82.7	87.5	Inhibition rate (%) Concentration 0.001% [7]: 27.4%
3-methyl-4(5)-cyclopentadecen-1-one			99.1	98.8	Inhibition rate (%) Concentration 0.001% [7]: 92.4%
vetiverol			88.0	97.1	
CCCCCCCC1CCCC1=O (stereo not drawn) [2-Heptylcyclopentanone, 2-heptylcyclopentanone]	17.1	70.6			
CC(CCO)CCc1ccccc1 (stereo not drawn) [Phenylhexanol, 3-methyl-5-phenyl-1-pentanol]	52.1	61.2			
O=C1CCCCCCCCCOCCCCCO1 [11-Oxa-16-hexadecanolide, 11-oxa-16-hexadecanolide]	26.8	62.8			
C=CC(C)(CCC=C(C)C)OC(C)=O (stereo not drawn) [Linalyl acetate, linalyl acetate]	62.6	95.8			
COc1ccc(C=O)cc1 [Anisaldehyde, anisaldehyde]					inhibition at 0.01 wt % [5]: 15.3%; inhibition at 0.1 wt % [6]: 85.9%
Cc1ccc2c(c1)OCC(=O)CO2 [Calone, 7-methyl-3,4-dihydro-(2H)-1,5-benzodioxepin-3-one]	17.3	73.3			
CCC(=O)/C=C/C1C(C)=CCCC1(C)C (stereo not drawn) [α-Methylionone, α-methylionone]			57.5	91.1	
CCC12CCC3C(C)(C)CCCC3(C)C1CCO2 (stereo not drawn) [Grisalva, 6,6,9α-trimethyl-3α-ethyldodecahydronaphtho[2,1-b]furan]			50.4	77.3	
COc1cc(C=O)ccc1O [Vanillin, vanillin]	49.5	82.1			
O=C1CCC=CCCCCCCCCCC1 [4-Cyclopentadecen-1-one, 4-cyclopentadecen-1-one]	93.5	99.1			Inhibition rate (%) Concentration 0.001% [7]: 67.2%
CC(=O)/C=C/C1=C(C)CCCC1(C)C [β-Ionone, β-ionone]			40.2	81.1	
CCCCCC1=CCCC1=O [2-Pentylcyclopentenone, 2-pentylcyclopentenone]			93.3	97.8	
COC1(C)CCCCCCCCCCC1 [Madrox, 1-methyl-1-methoxycyclododecane]	60.9	92.4			
OC/C=C/c1ccccc1 [Cinnamic alcohol, cinnamic alcohol]					inhibition at 0.01 wt % [5]: 56.2%; inhibition at 0.1 wt % [6]: 93.5%
CC/C=C\CC1=C(C)CCC1=O [cis-Jasmone, cis-jasmone]			77.2	99.2	Inhibition rate (%) Concentration 0.001% [7]: 24.8%
O=C1CCC=CCCCCCCCCCCO1 [4(5)-Cyclopentadecenolide, 4(5)-cyclopentadecenolide]			47.1	76.5	
CC(=O)/C(C)=C/C1C(C)=CCCC1(C)C (stereo not drawn) [γ-Methylionone, γ-methylionone]			84.1	98.5	Inhibition rate (%) Concentration 0.001% [7]: 22.0%
CC1=CC[C@H](C(C)C)C=C1 (racemic) [α-Phellandrene, α-phellandrene]			50.0	93.6	
CC(=O)C1(C)CC2=C(CCCC2(C)C)CC1C (stereo not drawn) [Iso E Super, 1,2,3,4,5,6,7,8-octahydro-2,3,8,8-tetramethyl-2-acetonaphthone]			63.1	85.9	
C=C(C)[C@@H]1CCC2=CC(=O)C[C@@H](C)[C@]2(C)C1 [Nootkatone, nootkatone]	80.8	95.2			
